{"source": "patent US20220064238A1", "about": "“Methods And Compositions For Modifying Transcription Factor Activity by Targeting The Human Mediator Complex Using Cell Penetrating Memetic Peptides And Methods of Treating Cancer Using The Same” (The Regents of the University of Colorado, a body corporate, priority 2020, published 2022)", "key": {"VP16-Mediator binding": {"target": "T1, VP16-Mediator binding (Homo sapiens, UniProt Q71SY5+Q9NVC6)", "T1 construct": "endogenous in cells", "assay": "In vitro binding assay, VP16AD-Mediator", "conditions": "bivalent peptide 5 μM"}, "[1]": {"tested_on": "p53 target genes in HCT116 cells", "assay": "RNA-Seq / GSEA in HCT116 cells, p53 pathway genes", "type": "cell-based, human", "protocol": "To circumvent this issue, we used a well-tested electroporation protocol to enhance cell uptake of the bivalent peptide (see Methods). HCT116 cells were evaluated either in the presence of bivalent peptide or vehicle (water), with or without Nutlin-3a (FIG. 3A, B). Nutlin-3a is a small molecule that activates and stabilizes p53 by inhibiting MDM2, a repressor of p53. […] After 3 h Nutlin-3a treatment (or DMSO control, ±bivalent peptide), nuclear RNA was isolated and biological replicate RNA-Seq libraries were prepared (FIG. 9A; Table 1).\nA confounding issue with these experiments was that cellular uptake of the bivalent peptide could not be accurately measured and could potentially vary from experiment-to-experiment. To assess this possibility more thoroughly, we completed an additional round of RNA-Seq experiments in control vs. Nutlin-treated HCT116 cells (FIG. 9B; Table 1). These additional experiments (RNA-Seq experiment 2) were completed with a slightly modified protocol that included treatment in serum-free media as an effort to enhance peptide uptake. Importantly, the data from RNA-Seq experiment 2 (biological triplicate; FIG. 10) were consistent with the first series of biological replicates (RNA-Seq experiment 1; FIG. 3C-E) and in each case, repression of p53-dependent transcription by the bivalent peptide tracked with Nutlin induction levels (FIG. 9CE). Nutlin-induced activation of p53 target genes was inhibited in the presence of the bivalent peptide, providing further evidence that the bivalent peptide blocks p53 response in cells. However, the scope and magnitude of the effect was reduced in this second, independent set of RNA-Seq experiments (e.g. compare FIG. 3C, D & FIG. 10C, D). This broadly consistent but variable magnitude effect can also be seen from RNA-Seq reads at specific p53 target genes (RNA-Seq experiment 1, FIG. 4A, B; RNA-Seq experiment 2, FIG. 4C, D). The overall p53 response to Nutlin-3a was reduced in RNA Seq experiment 2 (GSEA p53 pathway NES=2.76 in RNA-Seq experiment 1 vs. NES=1.59 in RNASeq experiment 2), which therefore reduced the transcriptional impact of the bivalent peptide. However, we cannot rule out variable cellular uptake of the bivalent peptide as a contributing factor.\nElectroporation of bivalent peptide into HCT116 cells (RNA-Seq experiment 1): Two 6-well plates (HCT116 cells) were grown to about 80% confluency. Cells were then trypsinized, washed with PBS, and resuspended in 150 μL Neon Buffer R. The cells were then split into two groups: No peptide and 10 μM peptide. The cells were then drawn into a 10 μL Neon pipet tip, electroporated and ejected into 2 mL of McCoy's 5A media without antibiotic. For each experiment, two cell electroporation aliquots were added to media containing either 0.1% DMSO (control) or 10 μM Nutlin-3a (in DMSO, to a final concentration of 0.1%). For wells containing cells electroporated with peptide, an additional 200 nM peptide was added to the well to allow for peptide uptake during the experiment. The 6-well plate was then placed back at 37° C. for 3 hours. After 3 hours, cells were scraped from the plates, transferred to a 15 mL conical vial, pelleted at 1,000×g, and washed in 10 mL phosphate buffered saline (PBS) solution. To isolate the nuclei, cells were resuspended in 10 mL lysis buffer (10 mM Tris-HCl, pH 7.4, 2 mM MgCl2, 3 mM CaCl2), 0.5% NP-40, 10% glycerol) and thoroughly mixed. The nuclei were spun down at 1,000×g for 10 minutes, the lysis buffer was removed, and 1 mL of TRIzol was added. The nuclear RNA was isolated as described in the TRIzol instructions, except an additional phenol/chloroform extraction and chloroform-only extraction were performed to reduce contaminants. RNA was precipitated and washed twice with 75% ethanol to further remove contaminants. The RNA was then converted to cDNA using the High Capacity cDNA kit from Thermo Fisher Scientific. […]"}, "SJSA cells": {"tested_on": "SJSA cells", "assay": "SJSA cell death after Nutlin treatment (CellTiter-Glo)", "type": "cell-based", "conditions": "24-hour Nutlin 10 μM", "protocol": "Experimental time frame for RNA-Seq experiments: In a series of experiments in SJSA cells, we initially tested whether the bivalent peptide could cause a phenotypic change. […] We next determined that a 6-hour Nutlin treatment time was the shortest that would still trigger significant SJSA cell death within 24-48 hours. However, we obtained similar results with 6-hour (or 12-hour) Nutlin treatment times (±bivalent peptide). We then tested the prospect of RNA-Seq experiments, in hopes that gene expression changes and shorter time frames would allow an assessment of bivalent peptide effects. Here, we used HCT116 cells, which show strong transcriptional response to Nutlin (Allen et al., 2014). For RNA-Seq experiments, we needed a time frame long enough to allow accumulation of p53 target gene mRNAs but short enough to enable maximum activity of the bivalent peptide (e.g. prior to its secretion, export, and/or degradation). Using RT-qPCR assays, we confirmed that a 3-hour Nutlin treatment was a minimum amount of time to reliably detect induction of p53 target genes. […] RNA-Seq data have been uploaded on GEO: GSE135870."}}, "note": "Bridge positions count the residues as written; N and C are the ends. Square brackets hold non-standard residues; d marks the D form. Peptide text beside a SMILES is read from it. PEG6 = NCCOCCOCCOCCOCCOCCOCCC(=O)O; R8 = C=CCCCCCC[C@@](C)(N)C(=O)O; S5 = C=CCCC[C@](C)(N)C(=O)O", "data": [{"compound": "CC[C@H](C)[C@H](NC(=O)[C@H](CC(=O)O)NC(=O)[C@H](CC(=O)O)NC(=O)[C@@H]1CCCN1C(=O)[C@H](CO)NC(=O)[C@H](CC(C)C)NC(=O)CCOCCOCCOCCOCCOCCOCCNC(=O)[C@H](CCCNC(=N)N)NC(=O)[C@H](CCCNC(=N)N)NC(=O)[C@]1(C)CCCC=CCCCCCC[C@@](C)(NC(=O)[C@H](Cc2ccccc2)NC(=O)[C@H](CCCNC(=N)N)NC(=O)[C@H](CCC(=O)O)NC(=O)[C@H](CCC(N)=O)NC(=O)[C@H](CO)NC(=O)[C@H](CCCNC(=N)N)NC(C)=O)C(=O)N[C@@H](CC(=O)O)C(=O)N[C@@H](CC(C)C)C(=O)N[C@@H](Cc2c[nH]c3ccccc23)C(=O)N[C@@H](CCCCN)C(=O)N[C@@H](CCCNC(=N)N)C(=O)N[C@@H](CC(C)C)C(=O)N1)C(=O)N[C@@H](CCC(=O)O)C(=O)N[C@@H](CCC(N)=O)C(=O)N[C@@H](Cc1c[nH]c2ccccc12)C(=O)N[C@@H](Cc1ccccc1)C(=O)N[C@H](C(=O)N[C@@H](CCC(=O)O)C(=O)N[C@@H](CC(=O)O)C(N)=O)[C@@H](C)O", "note": "[bivalent peptide] (Ac-RSQERF[R8]DLWKRL[S5]RR[PEG6]LSPDDIEQWFTED-NH2; staple 7-14; N-terminus assumed)", "values": [{"measurement": "effect on VP16AD binding to Mediator", "setting": "VP16-Mediator binding", "value": "did not reduce VP16AD binding to Mediator"}, {"measurement": "increase in Mediator-bound VP16 in +peptide experiments (GST-VP16 normalized to MED15)", "setting": "VP16-Mediator binding; n=2", "value": 1.67, "unit": "fold"}, {"measurement": "GSEA p53 pathway NES, Nutlin response in peptide-treated cells", "setting": "[1]; RNA-Seq experiment 1, +Nutlin", "value": 1.97}, {"measurement": "GSEA p53 pathway NES, Nutlin response in peptide-treated cells", "setting": "[1]; RNA-Seq experiment 2, +Nutlin", "value": 0.92}, {"measurement": "Nutlin-induced activation of p53 target genes in peptide-treated cells", "setting": "[1]; electroporated 10 μM peptide, Nutlin-3a 10 μM, 3 h, HCT116", "value": "diminished"}, {"measurement": "p53 activation by peptide alone", "setting": "[1]; no Nutlin, vs. untreated controls, HCT116", "value": "modest p53 activation"}, {"measurement": "effect on cell death after Nutlin treatment", "setting": "SJSA cells", "value": "no significant effect"}]}]}
